Where a SMILES comes first, the peptide text is derived from it. [ ]: non-standard residue; d: D form. ξ: configuration not given here. NMeF = CN[C@@H](Cc1ccccc1)C(=O)O; Hica(2S) = CC(C)C[C@H](O)C(=O)O; ξLac(3-iPr) = CC(C)CC(O)C(=O)O
Experiments:
Assay type in all cases: functional, cell-based
[1] = system: Huh-7; experiment: Antiproliferative activity against human Huh-7 cells assessed as reduction in cell viability after 48 hr by CCK-8 assay; conditions: Huh-7, 48 h
[2] = system: HepG2; experiment: Antiproliferative activity against human HepG2 cells assessed as reduction in cell viability after 48 hr by CCK-8 assay; conditions: HepG2, 48 h
[3] = Antiproliferative activity against rat MRMT-1 cells assessed as reduction in cell viability after 48 hr by CCK-8 assay; conditions: MRMT-1, 48 h

Structure (SMILES) | IC50 [1] [µM] | IC50 [2] [µM] | IC50 [3] [µM]
COC(=O)/C=C/c1c(CC=C(C)C)ncn1C | > 50 | > 50 | > 50
CC(C)[C@H]1OC(=O)[C@H](Cc2ccccc2)N(C)C(=O)[C@@H](C(C)C)OC(=O)[C@H](Cc2ccccc2)N(C)C(=O)[C@@H](C(C)C)OC(=O)[C@H](Cc2ccccc2)N(C)C1=O | 4.3 | 1 | 8.7
CCC(C)[C@H]1OC(=O)[C@H](C(C)C)N(C)C(=O)[C@@H](C(C)CC)OC(=O)[C@H](CC(C)C)N(C)C(=O)[C@@H](C(C)CC)OC(=O)[C@H](C(C)C)N(C)C1=O (stereo partly specified) | 3.3 | 1.4 | 2.8
CC[C@H](C)[C@H]1OC(=O)[C@H](C(C)C)N(C)C(=O)[C@@H](C(C)C)OC(=O)[C@H](C(C)C)N(C)C(=O)[C@@H]([C@@H](C)CC)OC(=O)[C@H](C(C)C)N(C)C1=O | 6.2 | 2.8 | 2.7
CC(C)(O)[C@H]1Cc2cc(C=O)ccc2O1 | > 50 | > 50 | > 50
CCCCCCCC(=O)O[C@@H]1[C@](N)(C(=O)O)CC[C@]1(O)c1ccccc1 | > 50 | > 50 | > 50
CC(=O)CC(O)Cc1cc2cc(O)cc(O)c2c(=O)o1 (stereo unspecified) | > 50 | > 50 | > 50
CCCCC/C=C\CCC(=O)O[C@@H]1[C@](N)(C(=O)O)CC[C@]1(O)c1ccccc1 | > 50 | > 50 | > 50
CCC(C)[C@H]1OC(=O)[C@H](C(C)C)N(C)C(=O)[C@@H](C(C)CC)OC(=O)[C@H](C(C)C)N(C)C(=O)[C@@H](C(C)CC)OC(=O)[C@H](C(C)C)N(C)C1=O (stereo partly specified) | 9.1 | 3.3 | 6.8
CCCCC/C=C\CCC(=O)OC1=C(c2ccccc2)CCC1=O | > 50 | > 50 | > 50
CCCCCCCC(=O)OC1=C(c2ccccc2)CCC1=O | > 50 | > 50 | > 50
CC(C)CC1OC(=O)[C@H](Cc2ccccc2)NC(=O)[C@H](Cc2ccccc2)NC(=O)[C@H](Cc2ccccc2)NC(=O)[C@H](Cc2ccccc2)NC(=O)[C@H](Cc2c[nH]c3ccccc23)NC1=O (stereo partly specified) (cyclo(FFFF[ξLac(3-iPr)]W)) | 30.3 | 15.4 | 17.3
CC(C)CC1OC(=O)[C@H](Cc2ccccc2)NC(=O)[C@H](Cc2ccccc2)NC(=O)[C@H](Cc2ccccc2)NC(=O)[C@H](Cc2ccc(O)cc2)NC1=O (stereo partly specified) (cyclo(FFF[ξLac(3-iPr)]Y)) | 46.2 | 10.7 | > 50
CC(C)C[C@@H]1OC(=O)[C@H](Cc2ccccc2)N(C)C(=O)[C@@H]2CCCN2C(=O)[C@H](C(C)C)NC(=O)[C@H](Cc2ccccc2)NC(=O)[C@@H]2CCCN2C(=O)[C@@H]2CCCN2C1=O (cyclo(FVP[NMeF][Hica(2S)]PP)) | > 50 | 20.1 | > 50
CCC(C)C1NC(=O)C(CC(C)C)NC(=O)C(C(C)CC)NC(=O)C(CC(C)C)NC(=O)C(CC(C)C)NC1=O (stereo unspecified) (cyclo(ILILL); configuration not given here) | > 50 | 14.1 | > 50
O=c1[nH]cc(F)c(=O)[nH]1 [FLUOROURACIL] | 30.3 | 36.1 | 25.7
CN1C(=O)[C@@](C)(O)C(=O)[C@@H]1Cc1ccc2c(c1)CC(C(C)(C)O)O2 (stereo partly specified) [RIGIDIUSCULAMIDE C] | > 50 | > 50 | > 50
